In PMC10755728, “Inhibitors of the Elastase LasB for the Treatment of Pseudomonas aeruginosa Lung Infections” (ACS Central Science, 2023):
Where two headings read alike, the source gives them in different places.

Tests used:
[1] = biological target: T1, LasB (Pseudomonas aeruginosa, UniProt Q02RJ6); experiment: biochemical; type: biochemical; conditions: for inhibition at 100 µM: read-out: % inh LasB @100 µM; for fold drop in activity compared to the 4-Me derivative (4a): vs 4a
T1 construct: made in house

[2] = biological target: ColH-PD (Hathewaya histolytica, UniProt Q46085); experiment: biochemical; type: biochemical, Clostridium histolyticum
[3] = biological target: T2, TACE (Homo sapiens, UniProt P78536); experiment: TACE inhibitor screening kit; type: biochemical; conditions: 100 μM; read-out: % inhibition TACE
T2 construct: purchased Sigma-Aldrich (Saint Louis, MO)

[4] = biological target: T3, MMP-3 (Homo sapiens, UniProt P08254); experiment: MMP-3 inhibition assay; type: biochemical; conditions: 100 μM; read-out: % inhibition MMP-3
T3 construct: purchased AnaSpec (Fremont, CA, USA)

[5] = Calu-3 permeability; type: in vitro ADME; conditions: human
[6] = biological target: T4, MMP-2 (Homo sapiens, UniProt P08253); experiment: MMP-2 inhibition assay; type: biochemical; conditions: 100 μM; read-out: % inhibition MMP-2
T4 construct: purchased AnaSpec (Fremont, CA, USA)
T4 sequence (P08253 110-660): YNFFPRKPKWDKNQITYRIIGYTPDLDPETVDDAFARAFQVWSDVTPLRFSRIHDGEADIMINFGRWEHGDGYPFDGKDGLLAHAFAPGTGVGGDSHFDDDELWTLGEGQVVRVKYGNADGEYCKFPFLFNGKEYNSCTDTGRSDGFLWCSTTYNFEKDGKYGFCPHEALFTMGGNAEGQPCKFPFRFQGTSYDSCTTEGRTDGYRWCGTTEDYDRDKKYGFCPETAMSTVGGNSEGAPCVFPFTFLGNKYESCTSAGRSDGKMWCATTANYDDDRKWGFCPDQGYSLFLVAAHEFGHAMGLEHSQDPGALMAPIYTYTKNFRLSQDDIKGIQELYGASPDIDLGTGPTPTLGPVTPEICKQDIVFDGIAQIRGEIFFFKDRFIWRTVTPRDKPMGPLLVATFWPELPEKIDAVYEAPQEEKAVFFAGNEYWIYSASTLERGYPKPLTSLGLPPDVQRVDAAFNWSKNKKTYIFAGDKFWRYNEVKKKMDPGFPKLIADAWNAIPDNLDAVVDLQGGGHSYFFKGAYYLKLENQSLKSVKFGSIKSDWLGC

[7] = Metabolic stability in human liver S9 fraction; type: in vitro ADME
[8] = system: HEK293; conditions: human, 48 h, 100 µM
Method: Culturing of HepG2, A549 and HEK293 cells. The human hepatocellular carcinoma cell line HepG2, the lung adenocarcinoma cell line A549 and Human Embryonic (HEK) 293 cells were cultured in Dulbecco's Modified Eagle Medium (DMEM), containing 10% Fetal Bovine Serum
(FBS) and 1% penicillin-streptomycin mixture. Cells were maintained according to standard cell
Cytotoxicity assay. An MTT-based assay was employed to evaluate the viability of HepG2,
HEK293 and A549 cells after challenge with selected LasB inhibitors and performed as described

[9] = biological target: T5, HDAC-3 (Homo sapiens, UniProt O15379); experiment: HDAC-3 inhibitor screening kit; type: biochemical
T5 construct: purchased Sigma-Aldrich (Saint Louis, MO)

[10] = Lipophilicity determination (LogD7.4, HPLC-MS); type: physicochemical; conditions: pH 7.4, pH 7.4, chromatographic
Method: Lipophilicity determination. LogD7.4 was analyzed using an HPLC−MS based method.50 The retention time of 12 compounds with known LogD7.4 was determined and plotted toward their LogD7.4. Linear regression was used to determine the LogD7.4 of unknown compounds. Analysis was performed using a Dionex Ultimate 3000 HPLC system coupled to a TSQ Quantum Access MAX (Thermo Fisher, Dreieich, Germany) with the following conditions: EC150/2 NUCLEODUR C18 Pyramid column, 5 μM (Macherey Nagel, Düren, Germany); eluent A: 50 mM NH4OAc pH 7.4, eluent B: acetonitrile, and flow: 0.6 mL/min.

[11] = biological target: T6, HDAC-8 (Homo sapiens, UniProt Q9BY41); experiment: HDAC-8 inhibitor screening kit; type: biochemical
T6 construct: purchased Sigma-Aldrich (Saint Louis, MO)
T6 sequence (Q9BY41 1-377): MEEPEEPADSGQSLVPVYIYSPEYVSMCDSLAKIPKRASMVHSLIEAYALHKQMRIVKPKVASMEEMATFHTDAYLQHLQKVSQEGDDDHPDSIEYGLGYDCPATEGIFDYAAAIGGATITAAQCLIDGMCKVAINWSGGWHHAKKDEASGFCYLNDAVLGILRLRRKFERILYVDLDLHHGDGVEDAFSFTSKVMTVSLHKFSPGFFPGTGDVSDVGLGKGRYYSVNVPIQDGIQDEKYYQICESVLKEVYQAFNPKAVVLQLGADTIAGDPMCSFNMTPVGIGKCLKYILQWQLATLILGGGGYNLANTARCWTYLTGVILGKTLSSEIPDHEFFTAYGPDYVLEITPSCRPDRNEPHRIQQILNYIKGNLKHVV

[12] = Metabolic stability in mouse liver S9 fraction; type: in vitro ADME
[13] = biological target: T7, MMP-1 (Homo sapiens, UniProt P03956); experiment: MMP-1 inhibition assay; type: biochemical; conditions: 100 μM; read-out: % inhibition MMP-1
T7 construct: purchased AnaSpec (Fremont, CA, USA)
T7 sequence (P03956 100-469): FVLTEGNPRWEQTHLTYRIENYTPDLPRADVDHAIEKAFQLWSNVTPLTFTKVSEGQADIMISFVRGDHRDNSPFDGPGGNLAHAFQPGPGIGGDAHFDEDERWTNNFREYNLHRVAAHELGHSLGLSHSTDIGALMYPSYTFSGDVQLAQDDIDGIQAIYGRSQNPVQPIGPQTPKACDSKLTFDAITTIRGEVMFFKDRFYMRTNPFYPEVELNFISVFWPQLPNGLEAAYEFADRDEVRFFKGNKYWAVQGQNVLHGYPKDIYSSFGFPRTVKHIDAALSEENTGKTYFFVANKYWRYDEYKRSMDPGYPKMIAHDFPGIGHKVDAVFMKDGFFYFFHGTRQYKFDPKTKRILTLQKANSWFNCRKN

[14] = Plasma stability, mouse; type: in vitro ADME; conditions: mouse plasma; read-out: Plasma T1/2 Mouse
[15] = biological target: T8, COX-1 (Ovis aries, UniProt P05979); experiment: Fluorometric COX-1 inhibitor assay; type: biochemical, human
T8 construct: purchased Abcam (Cambridge, UK)
T8 sequence (P05979 25-600): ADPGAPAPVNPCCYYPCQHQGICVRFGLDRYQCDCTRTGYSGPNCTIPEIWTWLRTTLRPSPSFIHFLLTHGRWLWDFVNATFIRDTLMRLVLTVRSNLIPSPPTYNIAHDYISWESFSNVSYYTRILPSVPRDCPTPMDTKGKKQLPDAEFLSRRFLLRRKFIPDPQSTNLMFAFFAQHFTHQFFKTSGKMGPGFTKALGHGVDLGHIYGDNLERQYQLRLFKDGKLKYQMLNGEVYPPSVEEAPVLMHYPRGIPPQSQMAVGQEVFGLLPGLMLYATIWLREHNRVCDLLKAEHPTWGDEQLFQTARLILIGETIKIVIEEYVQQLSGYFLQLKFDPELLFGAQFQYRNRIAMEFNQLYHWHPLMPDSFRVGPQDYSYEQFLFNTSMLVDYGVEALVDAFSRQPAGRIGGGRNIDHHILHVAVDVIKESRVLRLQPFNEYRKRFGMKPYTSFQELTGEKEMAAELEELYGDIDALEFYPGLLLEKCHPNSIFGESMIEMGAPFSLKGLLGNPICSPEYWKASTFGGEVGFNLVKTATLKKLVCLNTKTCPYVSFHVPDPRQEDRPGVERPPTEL

[16] = system: Galleria mellonella larvae infected with wt PA14; experiment: G. mellonella infection model
[17] = FRET-based assay, read-out: LasB IC50

T1 sequence (Q02RJ6 198-498): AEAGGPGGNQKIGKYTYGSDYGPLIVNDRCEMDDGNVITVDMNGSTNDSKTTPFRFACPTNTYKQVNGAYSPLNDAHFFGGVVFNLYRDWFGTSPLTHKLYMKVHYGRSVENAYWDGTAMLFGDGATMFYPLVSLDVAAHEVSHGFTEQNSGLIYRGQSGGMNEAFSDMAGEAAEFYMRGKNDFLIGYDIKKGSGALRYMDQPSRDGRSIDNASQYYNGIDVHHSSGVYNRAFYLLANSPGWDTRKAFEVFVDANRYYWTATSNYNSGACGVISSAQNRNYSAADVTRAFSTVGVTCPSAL
ColH-PD, sequence (Q46085 331-721 limits assumed): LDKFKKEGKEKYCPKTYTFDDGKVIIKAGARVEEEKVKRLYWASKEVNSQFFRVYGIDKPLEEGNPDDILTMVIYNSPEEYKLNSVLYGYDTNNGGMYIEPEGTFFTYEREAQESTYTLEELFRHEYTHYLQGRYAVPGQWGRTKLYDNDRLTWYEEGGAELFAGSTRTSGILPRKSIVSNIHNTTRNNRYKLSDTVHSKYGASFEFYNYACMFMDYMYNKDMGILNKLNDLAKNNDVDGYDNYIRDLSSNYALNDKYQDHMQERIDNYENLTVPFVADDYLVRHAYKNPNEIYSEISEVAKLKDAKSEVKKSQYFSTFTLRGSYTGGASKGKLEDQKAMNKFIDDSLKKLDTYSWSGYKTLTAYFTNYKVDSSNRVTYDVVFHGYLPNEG
T3 sequence (P08254 100-477): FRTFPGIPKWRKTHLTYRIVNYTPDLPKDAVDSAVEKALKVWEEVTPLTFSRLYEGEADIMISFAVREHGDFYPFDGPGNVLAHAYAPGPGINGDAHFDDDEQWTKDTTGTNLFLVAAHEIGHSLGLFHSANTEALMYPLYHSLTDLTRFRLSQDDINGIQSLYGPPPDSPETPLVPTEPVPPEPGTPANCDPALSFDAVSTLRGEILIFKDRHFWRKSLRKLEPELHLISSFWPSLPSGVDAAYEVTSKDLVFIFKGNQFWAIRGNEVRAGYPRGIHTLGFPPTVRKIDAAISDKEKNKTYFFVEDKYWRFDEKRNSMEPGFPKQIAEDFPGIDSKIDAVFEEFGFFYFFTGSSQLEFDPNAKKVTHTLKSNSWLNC
T5 sequence (O15379 whole entry): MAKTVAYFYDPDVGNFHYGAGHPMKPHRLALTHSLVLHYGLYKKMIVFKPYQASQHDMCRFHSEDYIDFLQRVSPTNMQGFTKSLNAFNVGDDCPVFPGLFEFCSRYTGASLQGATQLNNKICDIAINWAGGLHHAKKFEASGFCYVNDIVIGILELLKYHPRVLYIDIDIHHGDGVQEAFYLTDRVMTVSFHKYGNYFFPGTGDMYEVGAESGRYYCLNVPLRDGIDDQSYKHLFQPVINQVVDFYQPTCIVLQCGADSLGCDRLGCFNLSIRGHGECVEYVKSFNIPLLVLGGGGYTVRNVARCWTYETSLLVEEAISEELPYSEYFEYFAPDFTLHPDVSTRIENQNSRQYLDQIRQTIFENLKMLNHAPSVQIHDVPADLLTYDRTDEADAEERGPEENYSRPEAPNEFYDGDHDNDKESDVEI
T5 sequence (Q9Y618 395-489 partner limits assumed): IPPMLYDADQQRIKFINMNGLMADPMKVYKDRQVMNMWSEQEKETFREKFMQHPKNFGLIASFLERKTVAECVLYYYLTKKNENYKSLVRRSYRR
T2 sequence (P78536 215-824): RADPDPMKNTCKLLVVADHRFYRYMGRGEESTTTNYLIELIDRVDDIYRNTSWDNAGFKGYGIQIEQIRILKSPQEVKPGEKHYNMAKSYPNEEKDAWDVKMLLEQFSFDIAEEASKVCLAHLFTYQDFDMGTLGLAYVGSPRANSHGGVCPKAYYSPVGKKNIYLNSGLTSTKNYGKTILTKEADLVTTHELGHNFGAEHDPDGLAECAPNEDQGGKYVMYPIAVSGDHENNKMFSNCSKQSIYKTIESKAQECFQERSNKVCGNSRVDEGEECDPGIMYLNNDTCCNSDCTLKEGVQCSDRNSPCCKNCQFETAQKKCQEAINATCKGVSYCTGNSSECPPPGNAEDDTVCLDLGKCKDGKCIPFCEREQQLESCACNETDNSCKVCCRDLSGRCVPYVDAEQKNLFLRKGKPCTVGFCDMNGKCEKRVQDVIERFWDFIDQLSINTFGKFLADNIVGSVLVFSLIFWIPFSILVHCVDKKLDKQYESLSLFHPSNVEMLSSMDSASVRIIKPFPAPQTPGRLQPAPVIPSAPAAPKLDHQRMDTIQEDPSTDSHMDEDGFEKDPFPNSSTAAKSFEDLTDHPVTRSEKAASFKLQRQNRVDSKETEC

CC(C)CC(C(=O)Nc1ccc(Cl)cc1)P(=O)(O)O (stereo not shown) [Compound 4i]
IC50 [1, 17]: 47.6 ± 4.4 nM

Cc1ccc(NC(=O)C(CC(C)C)n2ccnc2)cc1 (stereo not shown) [Compound 3k]
inhibition at 100 µM [1]: 14 ± 4%

CC(C)CC(C(=O)Nc1cccc2ccccc12)P(=O)(O)O (stereo not shown) [Compound 4m]
IC50 [1, 17]: 69.1 ± 7.5 nM

CC(=O)c1ccc(NC(=O)C(CC(C)C)P(=O)(O)O)cc1 (stereo not shown) [Compound 4g]
IC50 [1, 17]: 40.4 ± 11.6 nM
% inhibition ColH-PD @1 µM [2]: 65%
Ki [2]: 320 ± 70 nM
fold higher potency against ColH compared to 2 [2]: 20 fold

Cc1ccc(NC(=O)C(CC(C)C)P(=O)(O)O)c(C)c1 (stereo not shown) [Compound 4e]
IC50 [1, 17]: 84.5 ± 2.7 nM
fold drop in activity compared to the 4-Me derivative (4a) [1]: ~2 fold

Cc1ccc(NC(=O)C(CC(C)C)n2nccn2)cc1 (stereo not shown) [Compound 3m]
inhibition at 100 µM [3]: < 10%
inhibition at 100 µM [4]: < 10%
Papp at 300 min [5]: 18 ± 1 ×10⁻⁶ cm/s
inhibition at 100 µM [6]: < 10%
microsomal CLint at 1 μM [7]: 18.5 ± 0.9 µL/min/mg
% growth inhibition HEK293 [8]: 21 ± 1%
inhibition at 100 µM [9]: < 10%
chromatographic logD [10]: > 1.8
inhibition at 100 µM [11]: < 10%
microsomal CLint at 1 μM [12]: 356 ± 45 µL/min/mg
inhibition at 100 µM [13]: < 10%
half-life at 1 μM [14]: > 2.5 h
inhibition at 100 µM [15]: < 10%

Cc1ccc(NC(=O)C(CC(C)C)P(=O)(O)O)c(F)c1 (stereo not shown) [Compound 4d]
IC50 [1, 17]: 116 ± 16.1 nM
fold drop in activity compared to the 4-Me derivative (4a) [1]: ~2 fold
inhibition at 1 µM ([2]; read-out: % inhibition ColH-PD @1 µM): < 10%

O=C(Nc1ccc(C(F)(F)F)cc1)C(Cc1ccccc1)P(=O)(O)O (stereo not shown) [Compound 4y]
IC50 [1, 17]: 101.5 ± 0.9 nM

Cc1ccc(NC(=O)[C@@H](N)CC(C)C)cc1 [Compound 3b]
inhibition at 100 µM [1]: < 10%

CC(C)CC(C(=O)Nc1ccc2c(c1)CCC2)P(=O)(O)O (stereo not shown) [Compound 4o]
IC50 [1, 17]: 44.3 ± 4.5 nM

CCCC(C(=O)Nc1ccc(C(C)=O)cc1)P(=O)(O)O (stereo not shown) [Compound 4ad]
IC50 ([1]; LasB IC50, FRET-based assay): 870 ± 30 nM

NC[C@H]1O[C@H](O[C@H]2[C@H](O)[C@@H](O[C@H]3O[C@H](CO)[C@@H](O)[C@H](N)[C@H]3O)[C@H](N)C[C@@H]2N)[C@H](N)C[C@@H]1O [tobramycin, reference compound]
survival of larvae infected with wt PA14 ([16]; 1 nmol 4b, 10.7 nmol tobramycin, or both, 17% in the wild type): 23%
survival in the PBS treated groups (not infected) ([16]; PBS with 4b, tobramycin or combination of both): 100%

Cc1ccc(NC(=O)C(CC(C)C)n2ccnn2)cc1 (stereo not shown) [Compound 3l]
inhibition at 100 µM [3]: < 10%
inhibition at 100 µM [4]: < 10%
Papp at 300 min [5]: 17 ± 1 ×10⁻⁶ cm/s
inhibition at 100 µM [6]: < 10%
microsomal CLint at 1 μM [7]: 8.8 ± 1.2 µL/min/mg
inhibition at 100 µM [9]: < 10%
chromatographic logD [10]: > 1.8
inhibition at 100 µM [11]: < 10%
microsomal CLint at 1 μM [12]: 90 ± 9 µL/min/mg
inhibition at 100 µM [13]: < 10%
half-life at 1 μM [14]: > 2.5 h
inhibition at 100 µM [15]: < 10%

Cc1ccc(NC(=O)C(CC(C)C)n2cncn2)cc1 (stereo not shown) [Compound 3n]
inhibition at 100 µM [1]: < 10%

Cc1ccc(NC(=O)C(CC2CCCCC2)P(=O)(O)O)cc1 (stereo not shown) [Compound 4z]
IC50 [1, 17]: 2030 nM

Cc1ccc(NC(=O)C(Cc2ccccc2)P(=O)(O)O)cc1 (stereo not shown) [Compound 4x]
IC50 [1, 17]: 137 ± 33 nM
